Experimental data taken from publication PMC3257383 (Journal of Medicinal Chemistry, 2011).

Experiments:
Purified CYP3A4 = Purified CYP3A4 (Homo sapiens, UniProt P08684, S18F); settings: for Soret peak / Soret trough: human, 20 µM, pH 7.4
CYP3A4 baculosomes = CYP3A4 baculosomes (Homo sapiens, UniProt P08684); test: Saturation kinetics of metabolism by CYP3A4; assay type: in vitro ADME

| SMILES | Binding mode (Purified CYP3A4) | Soret peak (Purified CYP3A4) [nm] | Soret trough (Purified CYP3A4) [nm] | kcat higher than type I binding compounds 3 and 11 (CYP3A4 baculosomes; compared with compounds 3 and 11) | kcat smaller than type I binding compound 2 (CYP3A4 baculosomes; compared with compound 2 of series 1) | kcat larger than type I binding compound 10 (CYP3A4 baculosomes; compared with compound 10 of series 3) [times] | rate of benzylic hydroxylation compared to O-demethylation of compound 5 (CYP3A4 baculosomes; type II binding compounds, relative to aromatic hydroxylation in ring A) |
| --- | --- | --- | --- | --- | --- | --- | --- |
| CN(C)c1ccc(NC(=O)c2cc(-c3ccccc3)nc3ccccc23)cc1 [Compound 2] | Type I | 385 | 416 |  |  |  |  |
| Cc1ccc(NC(=O)c2cc(-c3ccccc3)nc3ccccc23)cc1 [Compound 4] | Type I | 393 | 417 |  |  |  |  |
| COc1ccc(NC(=O)c2cc(-c3ccncn3)nc3ccccc23)cc1 [Compound 17] | Type II | 425 | 391 |  |  |  |  |
| O=C(Nc1ccccc1)c1cc(-c2ccccn2)nc2ccccc12 [Compound 11] | Type I | 389 | 418 |  |  |  |  |
| O=C(Nc1ccccc1)c1cc(-c2ccncc2)nc2ccccc12 [Compound 7] | Type II | 427 | 394 | about 1.5 times |  |  |  |
| O=C(Nc1ccccc1)c1cc(-c2ccccc2)nc2ccccc12 [Compound 3] | Type I | 392 | 417 |  |  |  |  |
| CN(C)c1ccc(NC(=O)c2cc(-c3ccncc3)nc3ccccc23)cc1 [Compound 6] | Type II ^b | 427 | 392 |  | more than 2 fold | 1.2 |  |
| CN(C)c1ccc(NC(=O)c2cc(-c3ccccn3)nc3ccccc23)cc1 [Compound 10] | Type I | 386 | 416 |  |  |  |  |
| Cc1ccc(NC(=O)c2cc(-c3ccncc3)nc3ccccc23)cc1 [Compound 8] | Type II | 428 | 392 |  |  |  | about three fold faster |
| COc1ccc(NC(=O)c2cc(-c3cnccn3)nc3ccccc23)cc1 [Compound 13] | Type II | 423 | 396 |  |  |  |  |
| COc1ccc(NC(=O)c2cc(-c3ccccn3)nc3ccccc23)cc1 [Compound 9] | Type I | 388 | 417 |  |  |  |  |
| Cc1ccc(NC(=O)c2cc(-c3ccccn3)nc3ccccc23)cc1 [Compound 12] | Type I | 391 | 416 |  |  |  |  |
| Cc1ccc(NC(=O)c2cc(-c3ccncn3)nc3ccccc23)cc1 [Compound 20] | Type II | 425 | 390 |  |  |  |  |
| CN(C)c1ccc(NC(=O)c2cc(-c3cnccn3)nc3ccccc23)cc1 [Compound 14] | Type II | 425 | 393 |  |  |  |  |
| O=C(Nc1ccccc1)c1cc(-c2cnccn2)nc2ccccc12 [Compound 15] | Type II | 427 | 397 |  |  |  |  |
| COc1ccc(NC(=O)c2cc(-c3ccncc3)nc3ccccc23)cc1 [Compound 5] | Type II | 427 | 391 |  |  |  |  |
| Cc1ccc(NC(=O)c2cc(-c3cnccn3)nc3ccccc23)cc1 [Compound 16] | Type II | 422 | 391 |  |  |  |  |
| O=C(Nc1ccccc1)c1cc(-c2ccncn2)nc2ccccc12 [Compound 19] | Type II | 424 | 390 |  |  |  |  |
| CN(C)c1ccc(NC(=O)c2cc(-c3ccncn3)nc3ccccc23)cc1 [Compound 18] | Type II | 422 | 392 |  |  |  |  |
